Source: paper PMC3865603 (Cancer chemotherapy and pharmacology, 2011)

Assays:
[1] = Plasma pharmacokinetics, non-compartmental; assay type: in vivo, human
[2] = Urinary excretion of KOS-1584 and metabolites; assay type: in vivo, human; details: MTD level, 0-24 h urine
[3] = system: plasma proteins; details: cited from earlier work
[4] = system: P-gp-overexpressing cell lines; details: cited from earlier work
[5] = system: paclitaxel-resistant xenografts; details: cited from earlier work
[6] = mice; cited from earlier work
[7] = system: CYP3A4/5; details: in vitro; cited from earlier work
[8] = KOS-1584 0.8 mg/m^2, 3 h infusion, cycle 1, N=1
[9] = KOS-1584 1.5 mg/m^2, 3 h infusion, cycle 1, N=4
[10] = KOS-1584 2.5 mg/m^2, 3 h infusion, cycle 1, N=4
[11] = KOS-1584 3.7 mg/m^2, 3 h infusion, cycle 1, N=3
[12] = KOS-1584 5.0 mg/m^2, 3 h infusion, cycle 1, N=4
[13] = KOS-1584 6.5 mg/m^2, 3 h infusion, cycle 1, N=6
[14] = KOS-1584 8.5 mg/m^2, 3 h infusion, cycle 1, N=3
[15] = KOS-1584 11.3 mg/m^2, 3 h infusion, cycle 1, N=4
[16] = KOS-1584 15.0 mg/m^2, 3 h infusion, cycle 1, N=4
[17] = KOS-1584 20.0 mg/m^2, 3 h infusion, cycle 1, N=5
[18] = KOS-1584 27 mg/m^2, 3 h infusion, cycle 1, N=4
[19] = KOS-1584 36 mg/m^2, 3 h infusion, cycle 1, N=16
[20] = KOS-1584 42 mg/m^2, 3 h infusion, cycle 1, N=6
[21] = KOS-1584 48 mg/m^2, 3 h infusion, cycle 1, N=2
[22] = all cohorts 0.8-48 mg/m^2, cycle 1

**Q.** For C/C1=C/C[C@@H](/C(C)=C/c2csc(C)n2)OC(=O)C[C@H](O)C(C)(C)C(=O)[C@H](C)[C@@H](O)[C@@H](C)/C=C/C1 [KOS-1584, (E)-9,10-didehydroepothilone D], which linearity of pharmacokinetics ([1]; 0.8-48 mg/m^2) is on record?
**A.** linear pharmacokinetics

**Q.** And the “KOS-1584 AUC” value [1, 8]?
**A.** 26.7 ng·h/mL

**Q.** What about the “KOS-1584 CL” value [1, 8] of the same compound?
**A.** 30.0 L/h/m^2

**Q.** And the “KOS-1584 Cmax” value [1, 8]?
**A.** 5.73 ng/mL

**Q.** What about the “KOS-1584 Tmax” value [1, 8] of the same compound?
**A.** 3.0 ng/mL

**Q.** What about the “KOS-1584 Vλ” value [1, 8] of the same compound?
**A.** 541 L/m^2

**Q.** What about the “KOS-1584 t1/2” value [1, 8] of the same compound?
**A.** 12.5 h

**Q.** What about the “KOS-1584 AUC” value [1, 9] of the same compound?
**A.** 64.9 ± 16.3 ng·h/mL

**Q.** And the “KOS-1584 CL” value [1, 9]?
**A.** 24.6 ± 7.63 L/h/m^2

**Q.** What about the “KOS-1584 Cmax” value [1, 9] of the same compound?
**A.** 9.29 ± 4.16 ng/mL

**Q.** What about the “KOS-1584 Tmax” value [1, 9] of the same compound?
**A.** 2.0 ± 1.2 ng/mL

**Q.** And the “KOS-1584 Vλ” value [1, 9]?
**A.** 553 ± 146 L/m^2

**Q.** What about the “KOS-1584 t1/2” value [1, 9] of the same compound?
**A.** 16.0 ± 3.96 h

**Q.** And the “KOS-1584 AUC” value [1, 10]?
**A.** 170 ± 2.21 ng·h/mL

**Q.** And the “KOS-1584 CL” value [1, 10]?
**A.** 14.9 ± 1.95 L/h/m^2

**Q.** What about the “KOS-1584 Cmax” value [1, 10] of the same compound?
**A.** 18.0 ± 5.24 ng/mL

**Q.** What about the “KOS-1584 Tmax” value [1, 10] of the same compound?
**A.** 3.0 ± 0.02 ng/mL

**Q.** What about the “KOS-1584 Vλ” value [1, 10] of the same compound?
**A.** 385 ± 109 L/m^2

**Q.** And the “KOS-1584 t1/2” value [1, 10]?
**A.** 18.2 ± 6.37 h

**Q.** What about the “KOS-1584 AUC” value [1, 11] of the same compound?
**A.** 359 ± 40.7 ng·h/mL

**Q.** And the “KOS-1584 CL” value [1, 11]?
**A.** 10.4 ± 1.27 L/h/m^2

**Q.** And the “KOS-1584 Cmax” value [1, 11]?
**A.** 32.9 ± 10.8 ng/mL

**Q.** What about the “KOS-1584 Tmax” value [1, 11] of the same compound?
**A.** 3.0 ± 0.06 ng/mL

**Q.** And the “KOS-1584 Vλ” value [1, 11]?
**A.** 279 ± 60.1 L/m^2

**Q.** And the “KOS-1584 t1/2” value [1, 11]?
**A.** 18.7 ± 3.64 h

**Q.** What about the “KOS-1584 AUC” value [1, 12] of the same compound?
**A.** 468 ± 140 ng·h/mL

**Q.** And the “KOS-1584 CL” value [1, 12]?
**A.** 11.3 ± 2.84 L/h/m^2

**Q.** What about the “KOS-1584 Cmax” value [1, 12] of the same compound?
**A.** 41.9 ± 13.4 ng/mL

**Q.** And the “KOS-1584 Tmax” value [1, 12]?
**A.** 2.61 ± 0.74 ng/mL

**Q.** And the “KOS-1584 Vλ” value [1, 12]?
**A.** 269 ± 104 L/m^2

**Q.** And the “KOS-1584 t1/2” value [1, 12]?
**A.** 16.0 ± 2.53 h

**Q.** And the “KOS-1584 AUC” value [1, 13]?
**A.** 566 ± 159 ng·h/mL

**Q.** And the “KOS-1584 CL” value [1, 13]?
**A.** 12.4 ± 2.91 L/h/m^2

**Q.** What about the “KOS-1584 Cmax” value [1, 13] of the same compound?
**A.** 41.9 ± 11.3 ng/mL

**Q.** And the “KOS-1584 Tmax” value [1, 13]?
**A.** 2.49 ± 0.76 ng/mL

**Q.** And the “KOS-1584 Vλ” value [1, 13]?
**A.** 348 ± 79.9 L/m^2

**Q.** And the “KOS-1584 t1/2” value [1, 13]?
**A.** 19.9 ± 4.68 h

**Q.** And the “KOS-1584 AUC” value [1, 14]?
**A.** 620 ± 317 ng·h/mL

**Q.** And the “KOS-1584 CL” value [1, 14]?
**A.** 15.9 ± 6.34 L/h/m^2

**Q.** And the “KOS-1584 Cmax” value [1, 14]?
**A.** 78.4 ± 28.8 ng/mL

**Q.** What about the “KOS-1584 Tmax” value [1, 14] of the same compound?
**A.** 2.96 ± 0.03 ng/mL

**Q.** What about the “KOS-1584 Vλ” value [1, 14] of the same compound?
**A.** 327 ± 190 L/m^2

**Q.** And the “KOS-1584 t1/2” value [1, 14]?
**A.** 13.7 ± 4.57 h

**Q.** And the “KOS-1584 AUC” value [1, 15]?
**A.** 2,206 ± 994 ng h/mL

**Q.** What about the “KOS-1584 CL” value [1, 15] of the same compound?
**A.** 6.28 ± 3.56 L/h/m^2

**Q.** And the “KOS-1584 Cmax” value [1, 15]?
**A.** 140 ± 41.9 ng/mL

**Q.** And the “KOS-1584 Tmax” value [1, 15]?
**A.** 2.60 ± 0.68 ng/mL

**Q.** What about the “KOS-1584 Vλ” value [1, 15] of the same compound?
**A.** 267 ± 197 L/m^2

**Q.** What about the “KOS-1584 t1/2” value [1, 15] of the same compound?
**A.** 28.5 ± 6.77 h

**Q.** What about the “KOS-1584 AUC” value [1, 16] of the same compound?
**A.** 2,204 ± 946 ng h/mL

**Q.** What about the “KOS-1584 CL” value [1, 16] of the same compound?
**A.** 7.69 ± 2.89 L/h/m^2

**Q.** What about the “KOS-1584 Cmax” value [1, 16] of the same compound?
**A.** 220 ± 84.7 ng/mL

**Q.** What about the “KOS-1584 Tmax” value [1, 16] of the same compound?
**A.** 2.97 ± 0.03 ng/mL

**Q.** What about the “KOS-1584 Vλ” value [1, 16] of the same compound?
**A.** 263 ± 113 L/m^2

**Q.** And the “KOS-1584 t1/2” value [1, 16]?
**A.** 23.5 ± 1.77 h

**Q.** What about the “KOS-1584 AUC” value [1, 17] of the same compound?
**A.** 2,440 ± 945 ng h/mL

**Q.** What about the “KOS-1584 CL” value [1, 17] of the same compound?
**A.** 9.28 ± 3.56 L/h/m^2

**Q.** And the “KOS-1584 Cmax” value [1, 17]?
**A.** 284 ± 153 ng/mL

**Q.** What about the “KOS-1584 Tmax” value [1, 17] of the same compound?
**A.** 2.38 ± 0.80 ng/mL

**Q.** And the “KOS-1584 Vλ” value [1, 17]?
**A.** 288 ± 165 L/m^2

**Q.** What about the “KOS-1584 t1/2” value [1, 17] of the same compound?
**A.** 20.2 ± 8.15 h

**Q.** And the “KOS-1584 AUC” value [1, 18]?
**A.** 3,190 ± 1,490 ng h/mL

**Q.** What about the “KOS-1584 CL” value [1, 18] of the same compound?
**A.** 10.1 ± 5.00 L/h/m^2

**Q.** What about the “KOS-1584 Cmax” value [1, 18] of the same compound?
**A.** 259 ± 110 ng/mL

**Q.** What about the “KOS-1584 Tmax” value [1, 18] of the same compound?
**A.** 3.10 ± 0.27 ng/mL

**Q.** And the “KOS-1584 Vλ” value [1, 18]?
**A.** 434 ± 339 L/m^2

**Q.** What about the “KOS-1584 t1/2” value [1, 18] of the same compound?
**A.** 27.8 ± 9.08 h

**Q.** And the “KOS-1584 AUC” value [1, 19]?
**A.** 5,267 ± 3,190 ng h/mL

**Q.** What about the “KOS-1584 CL” value [1, 19] of the same compound?
**A.** 8.98 ± 4.59 L/h/m^2

**Q.** And the “KOS-1584 Cmax” value [1, 19]?
**A.** 701 ± 425 ng/mL

**Q.** What about the “KOS-1584 Tmax” value [1, 19] of the same compound?
**A.** 2.67 ± 0.58 ng/mL

**Q.** And the “KOS-1584 Vλ” value [1, 19]?
**A.** 329 ± 134 L/m^2

**Q.** And the “KOS-1584 t1/2” value [1, 19]?
**A.** 27.9 ± 10.6 h

**Q.** What about the “KOS-1584 AUC” value [1, 20] of the same compound?
**A.** 7,355 ± 4,718 ng h/mL

**Q.** What about the “KOS-1584 CL” value [1, 20] of the same compound?
**A.** 8.52 ± 5.43 L/h/m^2

**Q.** What about the “KOS-1584 Cmax” value [1, 20] of the same compound?
**A.** 1,066 ± 513 ng/mL

**Q.** What about the “KOS-1584 Tmax” value [1, 20] of the same compound?
**A.** 2.95 ± 0.04 ng/mL

**Q.** What about the “KOS-1584 Vλ” value [1, 20] of the same compound?
**A.** 277 ± 165 L/m^2

**Q.** And the “KOS-1584 t1/2” value [1, 20]?
**A.** 24.1 ± 9.37 h

**Q.** What about the “KOS-1584 AUC” value [1, 21] of the same compound?
**A.** 4,727 ± 167 ng h/mL

**Q.** What about the “KOS-1584 CL” value [1, 21] of the same compound?
**A.** 10.1 ± 0.27 L/h/m^2

**Q.** What about the “KOS-1584 Cmax” value [1, 21] of the same compound?
**A.** 769 ± 42.4 ng/mL

**Q.** And the “KOS-1584 Tmax” value [1, 21]?
**A.** 2.92 ± 0.0 ng/mL

**Q.** And the “KOS-1584 Vλ” value [1, 21]?
**A.** 349 ± 205 L/m^2

**Q.** What about the “KOS-1584 t1/2” value [1, 21] of the same compound?
**A.** 24.1 ± 14.7 h

**Q.** What about the mean overall clearance [1, 22] of the same compound?
**A.** 11 ± 6.17 L/h/m^2

**Q.** And the “mean overall half-life of KOS-1584” value [1, 22]?
**A.** 21.9 ± 8.75 h

**Q.** What about the “mean overall volume of distribution” value [1, 22] of the same compound?
**A.** 327 ± 161 L/m^2

**Q.** What about the accumulation ([1]; every 3 weeks dosing, cycles 1 and 2) of the same compound?
**A.** no accumulation

**Q.** What about the “Urinary excretion of unchanged KOS-1584” value [2] of the same compound?
**A.** < 10 % of drug-related materials

**Q.** And the “bound to plasma proteins” value [3]?
**A.** 97%

**Q.** What about the “potency relative to paclitaxel” value [4] of the same compound?
**A.** more potent than paclitaxel

**Q.** And the anti-tumor activity [5]?
**A.** anti-tumor activity has been demonstrated

**Q.** And the “penetration of the BBB” value [6]?
**A.** did penetrate the BBB

**Q.** What about the “inhibition of CYP3A4/5” value [7] of the same compound?
**A.** potent inhibitor
